According to the NIST ThermoML archive (doi:10.1021/je0302304):
Numbers after ± are expanded uncertainties.

Test: refractive index (Na D-line) (dimensionless); xn = mol fraction of the nth substance listed
Settings: 101.32 kPa, Liquid, Standard Abbe refractometry

`COCCOCCOCCOCCOC` [2,5,8,11,14-pentaoxapentadecane] + CCO gave a refractive index (288.15 K, x1 = 0.0045) of 1.3644 ± 0.0003, a refractive index (288.15 K, x1 = 0.0085) of 1.3656 ± 0.0003 and a refractive index (288.15 K, x1 = 0.0125) of 1.3667 ± 0.0003. For the same compound, the refractive index (288.15 K, x1 = 0.0165) was 1.3678 ± 0.0003, the refractive index (288.15 K, x1 = 0.0205) was 1.3689 ± 0.0003 and the refractive index (288.15 K, x1 = 0.0305) was 1.3714 ± 0.0003. The refractive index (288.15 K, x1 = 0.05) was 1.376 ± 0.0003, the refractive index (288.15 K, x1 = 0.1) was 1.3858 ± 0.0003 and the refractive index (288.15 K, x1 = 0.15) was 1.3936 ± 0.0003. It also gave a refractive index (288.15 K, x1 = 0.2) of 1.3999 ± 0.0003, a refractive index (288.15 K, x1 = 0.25) of 1.405 ± 0.0003 and a refractive index (288.15 K, x1 = 0.3) of 1.4093 ± 0.0003. For the same compound, the refractive index (288.15 K, x1 = 0.35) was 1.4129 ± 0.0003, the refractive index (288.15 K, x1 = 0.4) was 1.4159 ± 0.0003 and the refractive index (288.15 K, x1 = 0.45) was 1.4186 ± 0.0003. For the same compound, the refractive index (288.15 K, x1 = 0.5) was 1.4209 ± 0.0003, the refractive index (288.15 K, x1 = 0.55) was 1.423 ± 0.0003 and the refractive index (288.15 K, x1 = 0.6) was 1.4248 ± 0.0003. It also gave a refractive index (288.15 K, x1 = 0.6499) of 1.4264 ± 0.0003, a refractive index (288.15 K, x1 = 0.7) of 1.4279 ± 0.0003 and a refractive index (288.15 K, x1 = 0.7498) of 1.4292 ± 0.0003. It also gave a refractive index (288.15 K, x1 = 0.7999) of 1.4304 ± 0.0003, a refractive index (288.15 K, x1 = 0.8499) of 1.4315 ± 0.0003 and a refractive index (288.15 K, x1 = 0.8997) of 1.4326 ± 0.0003. For the same compound, the refractive index (288.15 K, x1 = 0.9496) was 1.4335 ± 0.0003, the refractive index (288.15 K, x1 = 1) was 1.4344 ± 0.0003 and the refractive index (298.15 K, x1 = 0.0045) was 1.3604 ± 0.0003. The refractive index (298.15 K, x1 = 0.0085) was 1.3615 ± 0.0003, the refractive index (298.15 K, x1 = 0.0125) was 1.3627 ± 0.0003 and the refractive index (298.15 K, x1 = 0.0165) was 1.3638 ± 0.0003. For the same compound, the refractive index (298.15 K, x1 = 0.0205) was 1.3649 ± 0.0003, the refractive index (298.15 K, x1 = 0.0305) was 1.3674 ± 0.0003 and the refractive index (298.15 K, x1 = 0.05) was 1.372 ± 0.0003. The refractive index (298.15 K, x1 = 0.1) was 1.3819 ± 0.0003, the refractive index (298.15 K, x1 = 0.15) was 1.3897 ± 0.0003 and the refractive index (298.15 K, x1 = 0.2) was 1.396 ± 0.0003. For the same compound, the refractive index (298.15 K, x1 = 0.25) was 1.4011 ± 0.0003, the refractive index (298.15 K, x1 = 0.3) was 1.4053 ± 0.0003 and the refractive index (298.15 K, x1 = 0.35) was 1.4089 ± 0.0003. The refractive index (298.15 K, x1 = 0.4) was 1.412 ± 0.0003, the refractive index (298.15 K, x1 = 0.45) was 1.4146 ± 0.0003 and the refractive index (298.15 K, x1 = 0.5) was 1.417 ± 0.0003. For the same compound, the refractive index (298.15 K, x1 = 0.55) was 1.419 ± 0.0003, the refractive index (298.15 K, x1 = 0.6) was 1.4208 ± 0.0003 and the refractive index (298.15 K, x1 = 0.6499) was 1.4225 ± 0.0003. For the same compound, the refractive index (298.15 K, x1 = 0.7) was 1.4239 ± 0.0003, the refractive index (298.15 K, x1 = 0.7498) was 1.4252 ± 0.0003 and the refractive index (298.15 K, x1 = 0.7999) was 1.4264 ± 0.0003. The refractive index (298.15 K, x1 = 0.8499) was 1.4275 ± 0.0003, the refractive index (298.15 K, x1 = 0.8997) was 1.4285 ± 0.0003 and the refractive index (298.15 K, x1 = 0.9496) was 1.4294 ± 0.0003. It also gave a refractive index (298.15 K, x1 = 1) of 1.4303 ± 0.0003, a refractive index (308.15 K, x1 = 0.0045) of 1.3564 ± 0.0003 and a refractive index (308.15 K, x1 = 0.0085) of 1.3575 ± 0.0003. It also gave a refractive index (308.15 K, x1 = 0.0125) of 1.3586 ± 0.0003, a refractive index (308.15 K, x1 = 0.0165) of 1.3598 ± 0.0003 and a refractive index (308.15 K, x1 = 0.0205) of 1.3608 ± 0.0003. It also gave a refractive index (308.15 K, x1 = 0.0305) of 1.3634 ± 0.0003, a refractive index (308.15 K, x1 = 0.05) of 1.368 ± 0.0003 and a refractive index (308.15 K, x1 = 0.1) of 1.3779 ± 0.0003. For the same compound, the refractive index (308.15 K, x1 = 0.15) was 1.3857 ± 0.0003, the refractive index (308.15 K, x1 = 0.2) was 1.392 ± 0.0003 and the refractive index (308.15 K, x1 = 0.25) was 1.3971 ± 0.0003. It also gave a refractive index (308.15 K, x1 = 0.3) of 1.4013 ± 0.0003, a refractive index (308.15 K, x1 = 0.35) of 1.4049 ± 0.0003 and a refractive index (308.15 K, x1 = 0.4) of 1.408 ± 0.0003. The refractive index (308.15 K, x1 = 0.45) was 1.4106 ± 0.0003, the refractive index (308.15 K, x1 = 0.5) was 1.413 ± 0.0003 and the refractive index (308.15 K, x1 = 0.55) was 1.415 ± 0.0003. The refractive index (308.15 K, x1 = 0.6) was 1.4168 ± 0.0003, the refractive index (308.15 K, x1 = 0.6499) was 1.4184 ± 0.0003 and the refractive index (308.15 K, x1 = 0.7) was 1.4199 ± 0.0003. For the same compound, the refractive index (308.15 K, x1 = 0.7498) was 1.4212 ± 0.0003, the refractive index (308.15 K, x1 = 0.7999) was 1.4224 ± 0.0003 and the refractive index (308.15 K, x1 = 0.8499) was 1.4234 ± 0.0003. It also gave a refractive index (308.15 K, x1 = 0.8997) of 1.4244 ± 0.0003, a refractive index (308.15 K, x1 = 0.9496) of 1.4253 ± 0.0003 and a refractive index (308.15 K, x1 = 1) of 1.4262 ± 0.0003. For the same compound, the refractive index (318.15 K, x1 = 0.0045) was 1.3522 ± 0.0003, the refractive index (318.15 K, x1 = 0.0085) was 1.3533 ± 0.0003 and the refractive index (318.15 K, x1 = 0.0125) was 1.3545 ± 0.0003. The refractive index (318.15 K, x1 = 0.0165) was 1.3556 ± 0.0003, the refractive index (318.15 K, x1 = 0.0205) was 1.3567 ± 0.0003 and the refractive index (318.15 K, x1 = 0.0305) was 1.3593 ± 0.0003. The refractive index (318.15 K, x1 = 0.05) was 1.3641 ± 0.0003, the refractive index (318.15 K, x1 = 0.1) was 1.3741 ± 0.0003 and the refractive index (318.15 K, x1 = 0.15) was 1.3818 ± 0.0003. The refractive index (318.15 K, x1 = 0.2) was 1.3881 ± 0.0003, the refractive index (318.15 K, x1 = 0.25) was 1.3931 ± 0.0003 and the refractive index (318.15 K, x1 = 0.3) was 1.3973 ± 0.0003. It also gave a refractive index (318.15 K, x1 = 0.35) of 1.4009 ± 0.0003, a refractive index (318.15 K, x1 = 0.4) of 1.404 ± 0.0003 and a refractive index (318.15 K, x1 = 0.45) of 1.4067 ± 0.0003. For the same compound, the refractive index (318.15 K, x1 = 0.5) was 1.409 ± 0.0003, the refractive index (318.15 K, x1 = 0.55) was 1.411 ± 0.0003 and the refractive index (318.15 K, x1 = 0.6) was 1.4128 ± 0.0003. The refractive index (318.15 K, x1 = 0.6499) was 1.4144 ± 0.0003, the refractive index (318.15 K, x1 = 0.7) was 1.4159 ± 0.0003 and the refractive index (318.15 K, x1 = 0.7498) was 1.4172 ± 0.0003. It also gave a refractive index (318.15 K, x1 = 0.7999) of 1.4184 ± 0.0003, a refractive index (318.15 K, x1 = 0.8499) of 1.4194 ± 0.0003 and a refractive index (318.15 K, x1 = 0.8997) of 1.4204 ± 0.0003. It also gave a refractive index (318.15 K, x1 = 0.9496) of 1.4213 ± 0.0003 and a refractive index (318.15 K, x1 = 1) of 1.4221 ± 0.0003.
